Test results taken from patent US20140378409A1, “EFFECT POTENTIATOR FOR ANTITUMOR AGENTS” (TAIHO PHARMACEUTICAL CO., LTD., priority 2011, published 2014).
Structures can show the parent of a compound that is named as a salt.

How the values were obtained:
[1] = test system: human lung cancer cell line NCI-H441; test: Antitumor effect potentiating activity for gemcitabine hydrochloride, NCI-H441 subcutaneously transplanted model (nude mice); type: in vivo, human; nude mice
Experimental: (§1) As an index of the antitumor effect, the TV on Day 15 was measured for each medicament treated group, and the relative tumor volume (RTV) for Day 1 and T/C (%) were calculated by the following formulas to evaluate the antitumor effect.
(§2) TV (mm^3)=(Major axis×minor axis^2)/2
(§3) RTV=(TV on Day 15)/(TV on Day 1)
(§4) T/C (%)=(Mean RTV value of test solution administered group)/(mean RTV value of control group)×100
A human lung cancer cell line (NCI-H441) was transplanted into the right chest of a 5- to 6-week old male BALB/cA Jcl-nu mouse, and the mouse was used in the same manner as described in Test Example 1.
The test solution for a gemcitabine hydrochloride (GEMZAR, manufactured by Eli Lilly and Co.) single administration group was prepared such that the administered dose would be 240 mg/kg/day. Furthermore, the test solution of the compound (1) was prepared such that the administered dose would be 200 mg/kg/day.
The compound (1) was orally administered every day for 14 consecutive days from Day 1, and gemcitabine hydrochloride was administered on Day 1 and Day 8 through the mouse tail vein. Ina combined administration group, 200 mg/kg/day of the compound (1) and 240 mg/kg/day of gemcitabine hydrochloride were administered, and the effects were evaluated in the same manner as described in Test Example 1.

[2] = test system: human colorectal cancer cell line HT-29; test: Antitumor effect potentiating activity for irinotecan hydrochloride, HT-29 subcutaneously transplanted model (nude mice); type: in vivo, human; nude mice; conditions: HT-29, nude mice, Day 15
Experimental: as §1, §2, §3, §4
(§5) Furthermore, as an index of toxicity, the body weight [BW] was measured over time, and the mean body weight change [BWC (%)] up to Day 15 with respect to Day 1 was calculated by the following formula (n: day of body weight measurement carried out at a rate of two times/week, and the final day of measurement corresponds to Day 15, which is the final evaluation day).
(§6) BWC (%)=[(BW on Day n)−(BW on Day 1)]/(BW on Day 1)×100

[3] = test system: human gastric cancer cell line NCI-N87; test: Antitumor effect potentiating activity for lapatinib, NCI-N87 subcutaneously transplanted model (nude mice); type: in vivo, human; nude mice; conditions: 14 days
Experimental: as §1, §2, §3, §4
A human gastric cancer cell line (NCI-N87) was transplanted into the right chest of a 5- to 6-week old male BALB/cA Jcl-nu mouse, and the mouse was used in the same manner as described in Test Example 1. The test solution for a lapatinib (manufactured by LC Laboratories, Inc.) single administration group was prepared such that the amount of administration would be 100 mg/kg/day. Furthermore, the test solution of the compound (1) was prepared such that the amount of administration would be 200 mg/kg/day of the compound (1).
(§7) The compound (1) and lapatinib were orally administered every day for 14 consecutive days from Day 1. In a combined administration group, 200 mg/kg/day of the compound (1) and 100 mg/kg/day of lapatinib were administered, and the effects were evaluated in the same manner as described in Test Example 1.

[4] = test system: human lung cancer cell line NCI-H460; test: Antitumor effect potentiating activity for paclitaxel, NCI-H460 subcutaneously transplanted model (nude mice); type: in vivo, human; nude mice
Experimental: A human lung cancer cell line (NCI-H460) was transplanted into the right chest of a 5- to 6-week old male BALB/cA Jcl-nu mouse. After the tumor transplantation, the major axis (mm) and the minor axis (mm) of the tumor were measured to calculate the tumor volume (TV), and then mice were allocated to each treatment group such that the average TV's of each group would be uniform. The day on which this grouping (n=5) was performed was designated as Day 1.
The test solution for a paclitaxel (TAXOL injection, Bristol Myers K.K.) single administration group was prepared such that the administered dose of paclitaxel would be 60 mg/kg/day. Furthermore, the test solution for a compound (1) single administration group was prepared such that the administered dose would be 200 mg/kg/day. The compound (1) was orally administered every day for 14 consecutive days from Day 1, and paclitaxel was administered on Day 1 through the mouse tail vein. In a combined administration group, 200 mg/kg/day of the compound (1) and 60 mg/kg/day of paclitaxel were administered.
as §1, §2, §3, §4, §5, §6

[5] = test system: human gastric cancer cell line NUGC-4; test: Antitumor effect potentiating activity for TS-1, NUGC-4 subcutaneously transplanted model (nude rats); type: in vivo, human; nude rats; conditions: NUGC-4, nude rats, Day 15, 14 days
Experimental: as §1, §2, §3, §4
A human gastric cancer cell line (NUGC-4) was transplanted into the right chest of a 5- to 6-week old male nude rat, and the rat was used in the same manner as described in Test Example 1. The test solution for a TS-1 (TS-1, manufactured by Taiho Pharmaceutical Co., Ltd.) single administration group was prepared such that the amount of administration of tegafur would be 18 mg/kg/day. Furthermore, the test solution of the compound (1) was prepared such that the amount of administration would be 250 mg/kg/day and 50 mg/kg/day.
as §7, with “TS-1” for “lapatinib”, “250 mg/kg/day and 50” for “200”, “18” for “100”

[6] = test system: human gastric cancer cell line NUGC-4; test: Antitumor effect potentiating activity for paclitaxel, NUGC-4 subcutaneously transplanted model (nude mice); type: in vivo, human; nude mice; conditions: NUGC-4, nude mice, Day 15
Experimental: as §1, §2, §3, §4, §5, §6
A human gastric cancer cell line (NUGC-4) was transplanted into the right chest of a 5- to 6-week old male BALB/cA Jcl-nu mouse, and the mouse was used in the same manner as described in Test Example 1.
The test solution for a paclitaxel (TAXOL injection, manufactured by Bristol Myers K.K.) single administration group was prepared such that the amount of administration of paclitaxel would be 60 mg/kg/day.
The test solution of the compound (1) was prepared such that the amount of administration would be 12.5 mg/kg/day of the compound (1). In a combined administration group, 12.5 mg/kg/day of the compound (1) and 60 mg/kg/day of paclitaxel were administered. The compound (1) was orally administered every day for 14 consecutive days from Day 1, paclitaxel was administered on Day 1 through the mouse tail vein, and evaluation was made in the same manner as described in Test Example 1.
Furthermore, the body weight changes over time, which is an indicator of toxicity, were also evaluated in the same manner as described in Test Example 1.

[7] = Day 15, 200 mg/kg/day oral, 14 consecutive days
[8] = Day 15, 240 mg/kg/day, tail vein Day 1 and Day 8
[9] = Day 15, lapatinib 100 mg/kg/day oral
[10] = Day 15, paclitaxel 60 mg/kg/day, tail vein Day 1
[11] = paclitaxel 60 mg/kg/day, tail vein Day 1

## CNC(=O)c1cc2c(Oc3ccc(NC(=S)NC(=O)Cc4ccccc4)cc3F)ccnc2cc1OC [compound (1), 4-(2-Fluoro-4-(3-(2-phenylacetyl)thioureido)phenoxy)-7-methoxy-N-methylquinoline-6-carboxamide]
[1]; [7]
  RTV (mean ± standard deviation): 1.26 ± 0.15
  T/C (%): 18%
[2]; 50 mg/kg/day oral, 14 days
  RTV (mean ± standard deviation): 1.83 ± 0.29
  T/C (%): 44%
[3]; Day 15, 200 mg/kg/day oral
  RTV (mean ± standard deviation): 1.31 ± 0.23
  T/C (%): 52%
[4]; [7]
  RTV (mean ± standard deviation): 3.02 ± 0.63
  T/C (%): 34%
[5]; 50 mg/kg/day oral
  RTV (mean ± standard deviation): 2.36 ± 0.44
  T/C (%): 14%
[5]; 250 mg/kg/day oral
  RTV (mean ± standard deviation): 1.60 ± 0.33
  T/C (%): 10%
[6]; 12.5 mg/kg/day oral, 14 days
  RTV (mean ± standard deviation): 6.63 ± 1.91
  T/C (%): 95%

## Nc1ccn([C@@H]2O[C@H](CO)[C@@H](O)C2(F)F)c(=O)n1 [Gemcitabine hydrochloride, gemcitabine hydrochloride, reference compound]
[1]; [8]
  RTV (mean ± standard deviation): 1.10 ± 0.13
  T/C (%): 16%

## CS(=O)(=O)CCNCc1ccc(-c2ccc3ncnc(Nc4ccc(OCc5cccc(F)c5)c(Cl)c4)c3c2)o1 [Lapatinib, lapatinib, reference compound]
[3]; [9]
  RTV (mean ± standard deviation): 1.56 ± 0.18
  T/C (%): 62%

## CC(=O)O[C@H]1C(=O)[C@@]2(C)[C@H]([C@H](OC(=O)c3ccccc3)[C@]3(O)C[C@H](OC(=O)[C@H](O)[C@@H](NC(=O)c4ccccc4)c4ccccc4)C(C)=C1C3(C)C)[C@]1(OC(C)=O)CO[C@@H]1C[C@@H]2O [Paclitaxel, paclitaxel, reference compound]
[4]; [10]
  RTV (mean ± standard deviation): 3.67 ± 0.42
  T/C (%): 41%
[6]; [11]
  RTV (mean ± standard deviation): 5.77 ± 0.96
  T/C (%): 83%

## CCc1c2c(nc3ccc(OC(=O)N4CCC(N5CCCCC5)CC4)cc13)-c1cc3c(c(=O)n1C2)COC(=O)[C@]3(O)CC [Irinotecan hydrochloride, irinotecan hydrochloride, reference compound]
[2]; 50 mg/kg/day, tail vein Day 1, Day 5, Day 9
  RTV (mean ± standard deviation): 2.47 ± 0.40
